The results in this text go back to ChEMBL document CHEMBL4477157, “Iridoid Glucosides and Diterpenoids from Caryopteris glutinosa” (J Nat Prod, 2016).

pEC50: −log10 of the molar value.

By pEC50 is commonly meant the EC50 on a negative log10 scale, so that one unit is a factor of ten.

The subject of test [1] is KGN. Nature of the test: Induction of estrogen biosynthesis in human KGN cells assessed as upregulation of E2 concentration preincubated for 24 hrs followed by testosterone addition for 24 hrs by magnetic particle based ELISA. The class given is functional, cell-based.
Test [2] concerns KGN. The test can be described thus: Upregulation of aromatase expression in human KGN cells at 10 to 50 uM after 24 hrs by Western blot analysis. The class given is functional. (A western blot detects proteins with antibodies after separation by electrophoresis.)
The test system of test [3] is KGN. Nature of the test: Induction of estrogen biosynthesis in human KGN cells assessed as upregulation of E2 concentration at 25 uM preincubated for 24 hrs followed by testosterone addition for 24 hrs by magnetic particle based ELISA. The class given is functional. (An ELISA detects its analyte on a solid surface through an enzyme-linked reagent.)

Take `CC(=O)CC[C@@]1(C)[C@H](C)CC[C@@]2(C)C(CO)=CCC[C@H]12`: in the test with KGN [1], the Activity entry is “Dose-dependent effect” and the pEC50 is 5.10. The “fold change (FC)” value in the test with KGN [2] was 1.5. For the same molecule, the “fold change (FC)” value in the test with KGN [3] came to 2.
Regarding `COc1cc(/C=C/C(=O)OC[C@H]2O[C@@H](O[C@@H]3OC=C[C@@]4(O)[C@H](O)C[C@](C)(OC(C)=O)[C@@H]34)[C@H](O)[C@@H](O)[C@@H]2O)cc(OC)c1O`, in the test on KGN [1], the Activity result was “Dose-dependent effect”. The pEC50 with KGN [1] is 4.95. In addition, the “fold change (FC)” value in the test with KGN [2] came out at 1.5; with KGN [3] it was 2.
